Data on 39 sequences can be found in the OligoGym collection.

The data set concerns the target SNHG14. Conditions: ASO.
The mark [1] stands for this setting: Mouse Primary Neuronal Cell, 0.005 µM.

After the bases stand the sugars from the 5' end (letter, count) and the backbone: PS all phosphorothioate, else s phosphorothioate and o phosphodiester by linkage. Methylation of C is not given here. l = locked nucleic acid (LNA); d = 2'-deoxy (DNA)

Regarding “GTTTATACCCTTTCCAAT (sugars l1 d12 l2 d1 l2, PS)”, the target mRNA inhibition (Human Neuronal Cell, 7.5 µM) was found to be 54%.

Regarding “ATATTGATTCAATTCCC (sugars l2 d2 l1 d9 l3, PS)”, the target mRNA inhibition (Human Neuronal Cell, 7.5 µM) was found to be 75%.

With “AGTTCTACTATACTTTCC (sugars l1 d1 l1 d13 l2, PS)”, the target mRNA inhibition (Human Neuronal Cell, 7.5 µM) was determined as 40%.

Turning to “ATTGATTCAATTCCCTT (sugars l3 d8 l3 d1 l2, PS)”, the target mRNA inhibition (Human Neuronal Cell, 7.5 µM) came out at 51%.

For the sequence “AGCTTTTAACCAGAGTG (sugars l2 d11 l4, PS)”, for the setting “Human Neuronal Cell, 7.5 µM”, the target mRNA inhibition is 78%.

Take “TTTATACCTTTCTTTAACCC (sugars lddddddddddddldlddll, PS)”: where the note is “Human Neuronal Cell, 7.5 µM”, the target mRNA inhibition came out at 52%.

With “ATCTTTCCATTTATTTCCAT (sugars ldddldldddddddldddll, PS)”, the target mRNA inhibition (Human Neuronal Cell, 7.5 µM) was found to be 30%.

Take GCTTTTAACCAGAGTG (sugars l4 d10 l2, PS): the target mRNA inhibition (Human Neuronal Cell, 7.5 µM) worked out at 72%.

Take “TTACACTTAATTATACTT (sugars l3 d12 l3, PS)”: the target mRNA inhibition was determined as 14% (Human Neuronal Cell, 0.2 µM) and 22% (Human Neuronal Cell, 1 µM).

In the case of “GCACATTCTTTCTATAC (sugars l2 d1 l1 d11 l2, PS)”, under “Human Neuronal Cell, 7.5 µM”, the target mRNA inhibition was 61%.

“CAACATTATTAACCACCTTA (sugars ldlldddddddddddlddll, PS)”: the target mRNA inhibition (Human Neuronal Cell, 7.5 µM) came to 57%.

As to “AGATCATTCTCAACAATTA (sugars ldddlddddddddlldlll, PS)”, the target mRNA inhibition (Human Neuronal Cell, 7.5 µM) is 63%.

Consider “AATTTTTTTCTTACTATCTT (sugars ldlllldddddddlddddll, PS)”, for which the target mRNA inhibition (Human Neuronal Cell, 7.5 µM) turned out to be 55%.

On to “GTTTCCATCTACTATTAAT (sugars llddlddddddddddldll, PS)”, for which, where the note is “Human Neuronal Cell, 7.5 µM”, the target mRNA inhibition was 59%.

Regarding TACATCTCATACTTGC (sugars l4 d10 l2, PS), the target mRNA inhibition under setting [1] is 97%.

Regarding “TGTTTATACCCTTTCCA (sugars l3 d12 l2, PS)”, the target mRNA inhibition by setting is: (Human Neuronal Cell, 0.2 µM) 35%; (Human Neuronal Cell, 1 µM) 50%.

With “GCAACATTATTAACCACCT (sugars ldldldddddddlddddll, PS)”, the target mRNA inhibition (Human Neuronal Cell, 7.5 µM) is 52%.

Consider “TATTTATACACCATCAT (sugars l3 d11 l3, PS)”, for which the target mRNA inhibition turned out to be 59% (Human Neuronal Cell, 0.2 µM) and 63% (Human Neuronal Cell, 1 µM).

For the sequence “TCTCTACAACAGTCCCA (sugars l2 d13 l2, PS)”, the target mRNA inhibition reads like this: (Human Neuronal Cell, 0.2 µM) 44%; (Human Neuronal Cell, 1 µM) 55%.

For the sequence “CACTAATAATTCACTTT (sugars l4 d11 l2, PS)”, the target mRNA inhibition runs as follows: (Human Neuronal Cell, 0.2 µM) 31%; (Human Neuronal Cell, 1 µM) 49%.

Turning to “GCACATTCTTTCTATACC (sugars l1 d4 l1 d9 l3, PS)”, the target mRNA inhibition (Human Neuronal Cell, 7.5 µM) was 59%.

For the sequence “ACTGTTTATACCCTTTCC (sugars lddlddddddddddldll, PS)”, the target mRNA inhibition (Human Neuronal Cell, 7.5 µM) was found to be 62%.

In the case of “TTTATCAATATCTTCTCA (sugars lddlllddddddlddlll, PS)”, the target mRNA inhibition (Human Neuronal Cell, 7.5 µM) came to 60%.

With ACCACCTTAAGTAACA (sugars l4 d10 l2, PS), the target mRNA inhibition was found to be 27% (Human Neuronal Cell, 0.2 µM) and 33% (Human Neuronal Cell, 1 µM).

Consider “GCACATTCTTTCTATACC (sugars l1 d4 l1 d10 l2, PS)”, for which the target mRNA inhibition (Human Neuronal Cell, 7.5 µM) turned out to be 45%.

On to “CCACTGATTTCCTTAAA (sugars l4 d11 l2, PS)”, for which the target mRNA inhibition turned out to be 40% (Human Neuronal Cell, 0.2 µM) and 57% (Human Neuronal Cell, 1 µM).

Turning to “AGTTCTACTATACTTTC (sugars l3 d1 l1 d10 l2, PS)”, the target mRNA inhibition (Human Neuronal Cell, 7.5 µM) is 64%.

Regarding “CTACATCTCATACTTGC (sugars l2 d13 l2, PS)”, the target mRNA inhibition (Human Neuronal Cell, 0.2 µM) was -11%; the target mRNA inhibition (Human Neuronal Cell, 1 µM) was -20%; the target mRNA inhibition (Human Neuronal Cell, 5 µM) came out at 8%; the target mRNA inhibition under setting [1] turned out to be 90.4%.

Turning to CTGTACACAATCAACA (sugars l4 d10 l2, PS), the target mRNA inhibition came to 54% (Human Neuronal Cell, 0.2 µM) and 63% (Human Neuronal Cell, 1 µM).

“ATCATTCTCAACAATTAA (sugars l5 d8 l5, PS)”: the target mRNA inhibition (Human Neuronal Cell, 7.5 µM) is 48%.

Take CTTACCAATAGTTACC (sugars l4 d10 l2, PS): the target mRNA inhibition is, setting by setting: (Human Neuronal Cell, 0.2 µM) 45%; (Human Neuronal Cell, 1 µM) 65%.

In the case of “TTTTTTTCTTACTATCTTCA (sugars l3 d15 l2, PS)”, the target mRNA inhibition (Human Neuronal Cell, 7.5 µM) turned out to be 28%.

For the sequence ACCTACATCTCATACT (sugars l4 d10 l2, PS), the target mRNA inhibition reads like this: (Human Neuronal Cell, 0.2 µM) 14%; (Human Neuronal Cell, 1 µM) -14%; (Human Neuronal Cell, 5 µM) 33%; under setting [1], 93.8%.

Turning to “AGCAACATTATTAACCACC (sugars lddldddddddddlldlll, PS)”, the target mRNA inhibition (Human Neuronal Cell, 7.5 µM) came to 50%.

“CAAAGATCATTCTCAAC (sugars l1 d2 l2 d6 l6, PS)”: the target mRNA inhibition (Human Neuronal Cell, 7.5 µM) was 34%.

Regarding ATTCTTACCGTCTTTA (sugars l4 d10 l2, PS), the target mRNA inhibition by setting is: (Human Neuronal Cell, 0.2 µM) 49%; (Human Neuronal Cell, 1 µM) 60%.

Take “TTCCTCTGCTTATAACT (sugars l3 d12 l2, PS)”: the target mRNA inhibition turned out to be 50% (Human Neuronal Cell, 0.2 µM) and 61% (Human Neuronal Cell, 1 µM).

In the case of “AATTATTTATACACCATCAT (sugars lddddldddddddlldldll, PS)”, the target mRNA inhibition (Human Neuronal Cell, 7.5 µM) came to 60%.

Turning to “ATCATTCTCAACAATTA (sugars l1 d1 l3 d6 l6, PS)”, the target mRNA inhibition (Human Neuronal Cell, 7.5 µM) is -24%.
